Data taken from patent US6391338B1, “System for rendering substantially non-dissoluble bio-affecting agents bio-available” (Biovail Technologies Ltd., priority 1995, dated 2002).

Assay: Ibuprofen concentration in 0.1 N HCl by HPLC UV
Assay type: physicochemical
Conditions: 1 g solid dispersion (=200 mg ibuprofen) or raw drug in 900 mL 0.1 N HCl, stirred at 100 rpm for 0.5 h
Description: (§1) Samples were taken and ibuprofen concentration was measured by HPLC UV.
as §1

An ibuprofen concentration of 0.030 µg/mL was found for `CC(C)Cc1ccc(C(C)C(=O)O)cc1` (stereo not shown) [ibuprofen] in this work.
